Results from patent publication US9061006B2, “Compositions and methods for diagnosing and treating phenylketonuria (PKU)” (Ramot at Tel-Aviv University Ltd., priority 2011, dated 2015).

Legend:
Type in all cases: cell-based
PC12 cells = assay: MTT cell viability assay, PC12 cell line; settings: negative control amino acid, increasing amount
Experimental: (§1) Cell cytotoxicity experiments—CHO cells (2×10^5 cells/mL) were cultured in 96-well micro plates (100 μL/well) and incubated overnight at 37° C. 100 μL of phenylalanine was added to each well dissolved in Dulbecco's Modified Eagle Medium (DMEM) (Beit Haemek, Israel) at various concentrations. Each experiment was repeated 3 times. Following incubation for 6 hours at 37° C., cell viability was evaluated using the 3-(4,5-dimethylthiazolyl-2)-2,5-diphenyltetrazolium bromide (MTT) assay. Briefly, 20 μL of 5 mg/mL MTT dissolved in PBS was added to each well. After 4 hours incubation at 37° C., 100 μL of extraction buffer [20% SDS dissolved in a solution of 50% dimethylformamide and 50% DDW (pH 4.7)] was added to each well, and the plates were incubated again overnight at 37° C. Finally, color intensity was measured using an ELISA reader at 570 nm.
(§2) The present inventors next examined whether, like many amyloid structures, phenylalanine assemblies have a cytotoxic effect. This was examined in a physiological range of concentration, similar to that detected in untreated PKU patients. We performed in vitro cellular viability experiments. To this end, elevated concentrations of phenylalanine ranging from 0.1 μM to 15 mM were added to […] cultured PC12 cells. […] In the presence of 1.8 mM phenylalanine, PC12 cell viability was decreased to approximately 80%. […] In the presence of 6 mM phenylalanine, CHO cell viability was decreased to 84%. Moreover, the viability of the cells in the presence of phenylalanine at concentration of 12 mM was lower than 40% (FIG. 2A). The present assay is performed at much shorter time scales than those of disease progression and this may account for the slightly elevated concentrations than those typically found at PKU patients. It is also possible that such high concentrations of phenylalanine occur pathologically in PKU patients due to transient local high concentration in the brain. […] The present inventors further assessed the influence of the phenylalanine fibrils on the CHO cells using scanning electron microscope.

[1] = MTT cell viability assay, PC12 cell line; settings: rat, PC12 cells
Experimental: as §1, §2

[2] = MTT cell viability assay, CHO cell line; settings: Chinese hamster, CHO cells
Experimental: as §1

[3] = Immuno precipitation and cell cytotoxicity experiments (MTT); settings: Chinese hamster, prior to IP, CHO cells
Experimental: as §1
Immuno precipitation and cell cytotoxicity experiments—Phenylalanine solution at concentration of 7.5, 1.87, 0.46, 0.11 were either incubated with CHO cell or immuno-precipitate and then the solutions, without the fibrils, were incubated with CHO cell according to cell cytotoxicity experiments detailed above. Samples were immuno-precipitated with anti-phenylalanine fibrils antibodies (1:10) over night at 4° C. (previously purified on protein A column, in PBS+2% BSA).

CHO cells = assay: Scanning electron microscopy imaging of CHO cells; settings: incubation with phenylalanine fibrils 6 hour, SEM
Experimental: Scanning electron microscopy imaging of CHO cells—CHO cell were cultured on glass cover slips located in 24-well micro plates, then incubated with various concentration of phenylalanine fibrils for 6 hour at 37° C., as described in the cell cytotoxicity experiments section. The cell were fixated on the glass cover slip with 2.5% glutaraldehyde, then dehydrated and coated with gold. Scanning electron microscopy images were made using a JSM JEOL 840A SEM operating at 5 kV.

SMILES | toxic effect (cytotoxicity) (PC12 cells) | viability at 1.8 mM ([1]; 1.8 mM phenylalanine) [%] | viability at 7.5 mM ([1]; 7.5 mM phenylalanine) [%] | viability at 6 h, 6 mM ([2]; 6 mM phenylalanine) [%] | viability at 6 h, 12 mM ([2]; 12 mM phenylalanine) [%] | viability at 6 h, 1.87 mM ([3]; 1.87 mM phenylalanine assemblies) [%] | viability at 6 h, 7.5 mM ([3]; 7.5 mM phenylalanine assemblies) [%] | CHO cell morphology (CHO cells) | CHO cell density (CHO cells; compared to untreated cells)
C[C@H](N)C(=O)O [Alanine, reference compound] | did not demonstrate a toxic effect | – | – | – | – | – | – | – | –
N[C@@H](Cc1ccccc1)C(=O)O [phenylalanine] | – | ~80 | ~65 | 84 | < 40 | 56 | 44 | smaller and rounded | very low density
